Experimental findings from patent publication US8937072B2, “Substituted cyanoaniline compounds, preparation and use thereof” (Sinochem Corporation, priority 2011, dated 2015) are described below.

For one assay, the system named is cucumber downy mildew. Description: Protectant activity in vivo (whole plant) against cucumber downy mildew. The following applies: dose 50 mg/L. A digest of the protocol:
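Compound stock in organic solvent (≤5% v/v) diluted in water with 0.1% Tween-80 and sprayed onto whole host plants. Fungal inoculation 24 h later; humidity chamber then greenhouse as the pathogen requires. Activity rated visually, usually after 7 days.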
For `N#Cc1c(F)c(F)c(Nc2ccc(C(F)(F)F)cc2Cl)c(C#N)c1F` [Compound B-92], the “protectant activity against cucumber downy mildew in vivo” value is recorded as 98%.

Consider `N#Cc1c(Cl)c(Cl)c(C#N)c(Nc2c(Cl)cncc2Cl)c1Cl` [Compound C-124], for which the “protectant activity against cucumber downy mildew in vivo” value is reported as 100%.

Consider `N#Cc1c(Cl)c(Cl)c(Nc2nc(Cl)c(Cl)cc2Cl)c(C#N)c1Cl` [Compound B-128], for which the “protectant activity against cucumber downy mildew in vivo” value was determined as 98%.

Staying with this assay, now noted: dose 100 mg/L.
As for `N#Cc1c(F)c(F)c(Nc2ccc(C(F)(F)F)cc2Cl)c(C#N)c1F` [Compound B-92], the “protectant activity against cucumber downy mildew in vivo” value was determined as 100%.

For the molecule `N#Cc1c(Cl)c(Cl)c(C#N)c(Nc2c(Cl)cncc2Cl)c1Cl` [Compound C-124], the “protectant activity against cucumber downy mildew in vivo” value was found to be 100%.

Regarding `N#Cc1c(Cl)c(Cl)c(Nc2nc(Cl)c(Cl)cc2Cl)c(C#N)c1Cl` [Compound B-128], the “protectant activity against cucumber downy mildew in vivo” value was determined as 100%.

The same assay, now with this note: dose 400 mg/L.
On to `N#Cc1c(F)c(F)c(Nc2ccc(C(F)(F)F)cc2Cl)c(C#N)c1F` [Compound B-92], for which the “protectant activity against cucumber downy mildew in vivo” value is given as 100%.

As for `N#Cc1c(Cl)c(Cl)c(C#N)c(Nc2c(Cl)cncc2Cl)c1Cl` [Compound C-124], the “protectant activity against cucumber downy mildew in vivo” value is 100%.

For the molecule `N#Cc1c(Cl)c(Cl)c(Nc2c(Cl)c(Cl)c(C#N)c(Cl)c2C#N)c(C#N)c1Cl` [Compound B-69], the “protectant activity against cucumber downy mildew in vivo” value worked out at 100%.

With `N#Cc1c(Cl)c(Cl)c(Nc2nc(Cl)c(Cl)cc2Cl)c(C#N)c1Cl` [Compound B-128], the “protectant activity against cucumber downy mildew in vivo” value was 100%.

The subject of the next assay is rice blast. Description: microbe, parasite or virus in culture. It counts as cell-based. The following applies: Table 21, 0.03 mg/L.
In the case of `N#Cc1c(Cl)c(Cl)c(Nc2c(Cl)cc([N+](=O)[O-])cc2Br)c(Cl)c1C#N` [Compound A-46], the “the inhibition rate against rice blast (%) 0.03 mg/L” value (shortened to “the inhibition rate … (%) 0.03 mg/L”) is reported as 100%.

With `N#Cc1c(Cl)c(Cl)c(C#N)c(Nc2c(Cl)cc([N+](=O)[O-])cc2Br)c1Cl` [Compound C-49], the “the inhibition rate … (%) 0.03 mg/L” value was 100%.

On to `N#Cc1c(Cl)c(Cl)c(C#N)c(Nc2c(Cl)cncc2Cl)c1Cl` [Compound C-124], for which the “the inhibition rate … (%) 0.03 mg/L” value was 100%.

In the case of `N#Cc1c(Cl)c(Cl)c(Nc2nc(Cl)c(Cl)cc2Cl)c(C#N)c1Cl` [Compound B-128], the “the inhibition rate … (%) 0.03 mg/L” value is reported as 100%.

On to `COC(=O)c1cc(Cl)c(Nc2c(Cl)c(Cl)c(C#N)c(Cl)c2C#N)c(Cl)c1` [Compound B-62], for which the “the inhibition rate … (%) 0.03 mg/L” value is listed as 0%.

Still in this assay, the particulars now being: Table 21, 0.1 mg/L.
Turning to `N#Cc1c(Cl)c(Cl)c(Nc2c(Cl)cc([N+](=O)[O-])cc2Br)c(Cl)c1C#N` [Compound A-46], the “the inhibition rate against rice blast (%) 0.1 mg/L” value (shortened to “the inhibition rate … (%) 0.1 mg/L”) is 100%.

Turning to `N#Cc1c(Cl)c(Cl)c(C#N)c(Nc2c(Cl)cc([N+](=O)[O-])cc2Br)c1Cl` [Compound C-49], the “the inhibition rate … (%) 0.1 mg/L” value came out at 100%.

As to `N#Cc1c(Cl)c(Cl)c(C#N)c(Nc2c(Cl)cncc2Cl)c1Cl` [Compound C-124], the “the inhibition rate … (%) 0.1 mg/L” value is 100%.

On to `N#Cc1c(Cl)c(Cl)c(Nc2nc(Cl)c(Cl)cc2Cl)c(C#N)c1Cl` [Compound B-128], for which the “the inhibition rate … (%) 0.1 mg/L” value is on record as 100%.

On to `COC(=O)c1cc(Cl)c(Nc2c(Cl)c(Cl)c(C#N)c(Cl)c2C#N)c(Cl)c1` [Compound B-62], for which the “the inhibition rate … (%) 0.1 mg/L” value came to 80%.

The assay is the same for the next values; noted with them: Table 21, 0.3 mg/L.
`N#Cc1c(Cl)c(Cl)c(Nc2c(Cl)cc([N+](=O)[O-])cc2Br)c(Cl)c1C#N` [Compound A-46]: the “the inhibition rate against rice blast (%) 0.3 mg/L” value (from here on “the inhibition rate … (%) 0.3 mg/L”) turned out to be 100%.

As to `N#Cc1c(Cl)c(Cl)c(C#N)c(Nc2c(Cl)cc([N+](=O)[O-])cc2Br)c1Cl` [Compound C-49], the “the inhibition rate … (%) 0.3 mg/L” value is 100%.

In the case of `N#Cc1c(Cl)c(Cl)c(C#N)c(Nc2c(Cl)cncc2Cl)c1Cl` [Compound C-124], the “the inhibition rate … (%) 0.3 mg/L” value was 100%.

Regarding `N#Cc1c(Cl)c(Cl)c(Nc2nc(Cl)c(Cl)cc2Cl)c(C#N)c1Cl` [Compound B-128], the “the inhibition rate … (%) 0.3 mg/L” value was 100%.

`COC(=O)c1cc(Cl)c(Nc2c(Cl)c(Cl)c(C#N)c(Cl)c2C#N)c(Cl)c1` [Compound B-62]: the “the inhibition rate … (%) 0.3 mg/L” value amounted to 100%.

Still in this assay, the particulars now being: in vitro, dose 0.3 mg/L.
`N#Cc1c(F)c(F)c(Nc2ccc(C(F)(F)F)cc2Cl)c(C#N)c1F` [Compound B-92]: the “inhibition rate against rice blast” value worked out at 80%.

The same assay, now with this note: in vitro, dose 8.3 mg/L.
In the case of `N#Cc1c(Cl)c(Cl)c(Nc2c(Cl)c(Cl)c(C#N)c(Cl)c2C#N)c(C#N)c1Cl` [Compound B-69], the “inhibition rate against rice blast” value was 80%.

Another assay has as its system corn rust. Nature of the assay: Protectant activity in vivo (whole plant) against corn rust. The following applies: 6.25 mg/L. The method, then: The method is as followed: The whole plant is used in this test. The compound is dissolved in a proper solvent to get mother solution. The proper solvent is selected from acetone, methanol, DMF and so on according to their dissolving capability to the sample. The volume rate of solvent and testing solution (v/v) is equal to or less than 5%. The mother solution is diluted with water containing 0.1% tween-80 to get the testing solution whose concentration is designed. The testing solution is sprayed to the host plant by a special plant sprayer. The plant is inoculated with fungus after 24 hours. According to the infecting characteristic of fungus, the plant is stored in a humidity chamber and then transferred into greenhouse after infection is finished. And the other plants are placed in greenhouse directly. The activity of compound is obtained by eyeballing after 7 days in common.
`N#Cc1c(Cl)c(Cl)c(Nc2c(Cl)cc([N+](=O)[O-])cc2Br)c(Cl)c1C#N` [Compound A-46]: the “the protectant activity (%) against corn rust” value (“the protectant activity (%)” for short) is given as 75%.

In the case of `N#Cc1c(Cl)c(Cl)c(C#N)c(Nc2c(Cl)cc([N+](=O)[O-])cc2Br)c1Cl` [Compound C-49], the “the protectant activity (%)” value is listed as 50%.

Consider `COC(=O)c1cc(Cl)c(Nc2c(Cl)c(Cl)c(C#N)c(Cl)c2C#N)c(Cl)c1` [Compound B-62], for which the “the protectant activity (%)” value turned out to be 0%.

Still in this assay, the particulars now being: 25 mg/L.
For `N#Cc1c(Cl)c(Cl)c(Nc2c(Cl)cc([N+](=O)[O-])cc2Br)c(Cl)c1C#N` [Compound A-46], the “the protectant activity (%)” value came to 85%.

Take `N#Cc1c(Cl)c(Cl)c(C#N)c(Nc2c(Cl)cc([N+](=O)[O-])cc2Br)c1Cl` [Compound C-49]: the “the protectant activity (%)” value is recorded as 80%.

For the molecule `COC(=O)c1cc(Cl)c(Nc2c(Cl)c(Cl)c(C#N)c(Cl)c2C#N)c(Cl)c1` [Compound B-62], the “the protectant activity (%)” value came to 30%.

Staying with this assay, now noted: 100 mg/L.
For `N#Cc1c(Cl)c(Cl)c(Nc2c(Cl)cc([N+](=O)[O-])cc2Br)c(Cl)c1C#N` [Compound A-46], the “the protectant activity (%)” value came out at 95%.

Take `N#Cc1c(Cl)c(Cl)c(C#N)c(Nc2c(Cl)cc([N+](=O)[O-])cc2Br)c1Cl` [Compound C-49]: the “the protectant activity (%)” value is 90%.

Turning to `COC(=O)c1cc(Cl)c(Nc2c(Cl)c(Cl)c(C#N)c(Cl)c2C#N)c(Cl)c1` [Compound B-62], the “the protectant activity (%)” value is 60%.

The assay is the same for the next values; noted with them: 400 mg/L.
In the case of `N#Cc1c(Cl)c(Cl)c(Nc2c(Cl)cc([N+](=O)[O-])cc2Br)c(Cl)c1C#N` [Compound A-46], the “the protectant activity (%)” value worked out at 100%.

With `N#Cc1c(Cl)c(Cl)c(C#N)c(Nc2c(Cl)cc([N+](=O)[O-])cc2Br)c1Cl` [Compound C-49], the “the protectant activity (%)” value amounted to 100%.

Take `COC(=O)c1cc(Cl)c(Nc2c(Cl)c(Cl)c(C#N)c(Cl)c2C#N)c(Cl)c1` [Compound B-62]: the “the protectant activity (%)” value was found to be 100%.

The assay is the same for the next values; noted with them: dose 100 mg/L.
As for `N#Cc1c(F)c(F)c(Nc2ccc(C(F)(F)F)cc2Cl)c(C#N)c1F` [Compound B-92], the “protectant activity against corn rust in vivo” value came to 100%.

Still in this assay, the particulars now being: dose 400 mg/L.
On to `N#Cc1c(Cl)c(Cl)c(Nc2c(Cl)cc([N+](=O)[O-])cc2Br)c(Cl)c1C#N` [Compound A-46], for which the “protectant activity against corn rust in vivo” value came to 100%.

`N#Cc1c(F)c(F)c(Nc2ccc(C(F)(F)F)cc2Cl)c(C#N)c1F` [Compound B-92]: the “protectant activity against corn rust in vivo” value turned out to be 100%.

Take `N#Cc1c(Cl)c(Cl)c(C#N)c(Nc2c(Cl)cc([N+](=O)[O-])cc2Br)c1Cl` [Compound C-49]: the “protectant activity against corn rust in vivo” value came to 100%.

For `N#Cc1c(Cl)c(Cl)c(Nc2c(Cl)c(Cl)c(C#N)c(Cl)c2C#N)c(C#N)c1Cl` [Compound B-69], the “protectant activity against corn rust in vivo” value amounted to 100%.

As to `COC(=O)c1cc(Cl)c(Nc2c(Cl)c(Cl)c(C#N)c(Cl)c2C#N)c(Cl)c1` [Compound B-62], the “protectant activity against corn rust in vivo” value came to 100%.
